Some targets named below: Cytochrome P450 2D6 (Homo sapiens, UniProt P10635); Cytochrome P450 2C9 (Homo sapiens, UniProt P11712); Cytochrome P450 3A4 (Homo sapiens, UniProt P08684).
In series [1] the target is Voltage-gated inwardly rectifying potassium channel KCNH2 (Homo sapiens, UniProt Q12809). The following applies: Potency.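 Also: confirmatory quantitative high-throughput screen measuring inhibition of hERG channel activity.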
Series [2] can be described thus: HEp-2 cell cytotoxicity, dose response, cytotoxicity control for RSV inhibitor project, HTS (AID 2410). The following applies: human respiratory syncytial virus. It is filed as functional.
Series [3] concerns the target Heat shock protein HSP 90-alpha (Homo sapiens, UniProt P07900). Type of series: functional, organism-based.
A further series deals with T1, Phosphomannomutase 2 (Homo sapiens, UniProt O15305).
T1 sequence (O15305 whole entry): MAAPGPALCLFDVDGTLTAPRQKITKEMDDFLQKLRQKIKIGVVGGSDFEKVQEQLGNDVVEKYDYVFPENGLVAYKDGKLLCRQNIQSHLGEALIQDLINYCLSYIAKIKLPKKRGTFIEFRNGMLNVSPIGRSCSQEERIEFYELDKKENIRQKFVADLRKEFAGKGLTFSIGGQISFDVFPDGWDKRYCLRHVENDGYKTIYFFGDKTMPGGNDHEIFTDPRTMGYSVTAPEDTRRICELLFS
As to the kind of experiment: Counter screen SAR assay for PMM2 inhibitors via a fluorescence intensity assay. [Related pubchem assays (depositor defined):AID1545, AID1574]. A general note: Counterscreens check selectivity or assay interference.

Series [4] has as its target T2, Mannose-6-phosphate isomerase (Homo sapiens, UniProt P34949).
T2 sequence (P34949 whole entry): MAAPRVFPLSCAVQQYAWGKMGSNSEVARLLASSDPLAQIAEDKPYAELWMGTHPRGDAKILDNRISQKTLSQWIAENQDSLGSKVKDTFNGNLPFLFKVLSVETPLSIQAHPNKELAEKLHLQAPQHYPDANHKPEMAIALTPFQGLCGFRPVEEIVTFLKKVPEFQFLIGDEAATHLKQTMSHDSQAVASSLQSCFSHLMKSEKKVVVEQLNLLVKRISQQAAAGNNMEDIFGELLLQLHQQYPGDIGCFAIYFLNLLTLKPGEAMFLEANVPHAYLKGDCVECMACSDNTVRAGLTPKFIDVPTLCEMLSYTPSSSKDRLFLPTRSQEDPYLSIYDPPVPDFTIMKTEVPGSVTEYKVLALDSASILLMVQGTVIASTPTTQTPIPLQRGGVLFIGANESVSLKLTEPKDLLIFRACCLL
As to the kind of experiment: PMI enzyme inhibitors, confirmation, biochemical, fluorescence intensity (AID 1535).

A short description of series [5]: HepG2 cell cytotoxicity, dose response, cytotoxicity control for Shn3 inhibitor project, CellTiter-Glo, cherry-picked (AID 624134). It is filed as functional, cell-based. On the technique in general: Cellular ATP, detected with luciferase, serves as a proxy for viable cell number.
Series [6] can be described thus: control 3'UTR Renilla luciferase suppression, dose response, counter-screen for Shn3 inhibitor project, cell-based, Clone20-Shn3RL, cherry-picked (AID 624133). It is filed as functional.
Series [7] has as its system HEK293. As to the kind of experiment: cells. The following applies: Homo sapiens.
The target of series [8] is T3, Polyadenylate-binding protein 1 (Homo sapiens, UniProt P11940). As to the kind of experiment: PABP1 MLLE–PAM2 interaction inhibitors, dose response, miRNA deadenylation inhibitor project, biochemical, fluorescence polarization, Cy5-PAM2 peptide, secondary (AID 602260). The following applies: read-out: IC50_Mean. Type of series: functional. (In fluorescence polarisation assays a small probe gives low polarisation when free and higher when bound to something large.)

Series [9] in a line: Shn3 3'UTR reporter inhibitors, dose response, cell-based, Clone20 osteoblasts, firefly luciferase, cherry-picked (AID 624132).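 Also: firefly luciferase luminescence from reporter carrying the Shn3 3'UTR in osteoblasts.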 Type of series: functional.
Series [10] concerns the target T3, Polyadenylate-binding protein 1. As to the kind of experiment: PABP1 MLLE–PAM2 binding inhibitor potency, dose response, biochemical, fluorescence polarization, FITC-PAM2 peptide (AID 602259). Type of series: functional. The following applies: read-out: IC50_Mean.
Series [11] relates to HEK293. As to the kind of experiment: cells. The following applies: Homo sapiens. This is another data set of the same source.
Another series deals with T4, Cytochrome P450 1A2 (Homo sapiens, UniProt P05177).
T4 sequence (P05177 whole entry): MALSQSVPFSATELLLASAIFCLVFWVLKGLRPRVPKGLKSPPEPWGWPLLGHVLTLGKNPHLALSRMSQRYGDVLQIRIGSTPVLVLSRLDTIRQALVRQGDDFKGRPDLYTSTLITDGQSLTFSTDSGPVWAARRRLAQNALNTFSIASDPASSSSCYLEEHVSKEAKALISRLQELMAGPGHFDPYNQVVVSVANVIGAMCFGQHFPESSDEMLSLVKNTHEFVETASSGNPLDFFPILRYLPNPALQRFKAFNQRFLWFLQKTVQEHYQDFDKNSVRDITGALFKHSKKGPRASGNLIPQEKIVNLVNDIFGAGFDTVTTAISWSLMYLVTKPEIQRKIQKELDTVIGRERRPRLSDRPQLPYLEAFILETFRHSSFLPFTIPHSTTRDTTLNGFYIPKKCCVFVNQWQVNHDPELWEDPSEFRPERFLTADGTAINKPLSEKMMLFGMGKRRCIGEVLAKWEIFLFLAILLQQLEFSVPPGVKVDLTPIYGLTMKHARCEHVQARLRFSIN

The target of another series is Cytochrome P450 2C19 (Homo sapiens, UniProt P33261). As to the kind of experiment: Cytochrome panel assay with activity outcomes. Panel member name: p450-cyp2c19 Compounds with AC50 equal or less than 10 uM are considered active. Type of series: functional. The following applies: read-out: AC50.
The target of series [12] is T5, Microphthalmia-associated transcription factor (Homo sapiens, UniProt O75030).
T5 sequence (O75030 whole entry): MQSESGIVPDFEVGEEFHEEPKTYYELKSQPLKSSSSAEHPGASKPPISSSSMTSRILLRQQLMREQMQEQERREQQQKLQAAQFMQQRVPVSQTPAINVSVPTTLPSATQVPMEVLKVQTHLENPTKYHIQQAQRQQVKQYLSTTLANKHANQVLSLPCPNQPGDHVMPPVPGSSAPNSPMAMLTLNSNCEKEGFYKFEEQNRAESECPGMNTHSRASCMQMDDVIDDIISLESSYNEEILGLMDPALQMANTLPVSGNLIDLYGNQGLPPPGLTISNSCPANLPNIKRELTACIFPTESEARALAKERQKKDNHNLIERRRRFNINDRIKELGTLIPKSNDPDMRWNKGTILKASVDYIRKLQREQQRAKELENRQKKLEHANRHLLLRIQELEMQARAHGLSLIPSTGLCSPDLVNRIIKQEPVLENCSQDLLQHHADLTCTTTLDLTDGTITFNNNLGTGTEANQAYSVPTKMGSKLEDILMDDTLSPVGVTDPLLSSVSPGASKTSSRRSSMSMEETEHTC
As to the kind of experiment: TRPM1 promoter luciferase signal decrease, dose response, MITF inhibitor project, cell-based, SK-MEL-5, cherry-picked, set 3 (AID 493073).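 Also: SK-MEL-5 melanoma cells with luciferase driven by the MITF target TRPM1 promoter.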 It is filed as functional.

Series [13] is described as follows: inhibitors of PGC1a acetylation in cells, dose response, cell-based, cherry-picked samples (AID 720514).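 Also: potency may reflect raised or lowered acetylation signal.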 Type of series: functional.
Another series has as its system INS1. As to the kind of experiment: beta cell apoptosis inhibitors, cytokine rescue, dose response, luminescence, retest (AID 449756).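 Also: cell death triggered by IL-1 beta plus TNF-alpha plus IFN-gamma mixture; protective hits raise ATP signal compared with cytokine alone wells.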 Type of series: functional, cell-based. The following applies: Rattus norvegicus.
The subject of another series is A-375. As to the kind of experiment: A375 melanoma cell viability reduction, dose response, counter-screen for MITF modulator project, cherry-pick samples, set 2 (AID 540335). It is filed as functional, cell-based. The following applies: Homo sapiens.
The target of a further series is Beta-galactosidase (Escherichia coli, UniProt Q8VNN2). As to the kind of experiment: beta-galactosidase enzyme inhibitors and activators, dose response, artefact control for CCR6 antagonist project, biochemical, E. coli enzyme, set 3 (AID 504712). It is filed as functional.
The next series deals with Vero. As to the kind of experiment: cells. It is filed as functional. The following applies: Chlorocebus sabaeus.

Calls of active or inactive are those of the source.

Cytochrome P450 2C9, sequence (P11712 whole entry): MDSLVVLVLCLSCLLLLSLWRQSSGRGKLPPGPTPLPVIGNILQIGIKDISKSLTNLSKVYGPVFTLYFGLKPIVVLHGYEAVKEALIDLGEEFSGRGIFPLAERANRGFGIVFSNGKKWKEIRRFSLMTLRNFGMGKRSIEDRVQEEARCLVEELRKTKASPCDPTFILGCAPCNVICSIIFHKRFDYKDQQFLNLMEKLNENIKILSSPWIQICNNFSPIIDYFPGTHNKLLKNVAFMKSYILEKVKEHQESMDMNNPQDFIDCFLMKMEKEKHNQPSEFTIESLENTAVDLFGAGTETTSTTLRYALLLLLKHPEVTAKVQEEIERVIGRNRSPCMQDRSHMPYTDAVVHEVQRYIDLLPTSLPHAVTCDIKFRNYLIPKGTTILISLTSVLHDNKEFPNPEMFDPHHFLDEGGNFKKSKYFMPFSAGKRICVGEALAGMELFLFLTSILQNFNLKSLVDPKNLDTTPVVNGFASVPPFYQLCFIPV
Voltage-gated inwardly rectifying potassium channel KCNH2, sequence (Q12809 whole entry): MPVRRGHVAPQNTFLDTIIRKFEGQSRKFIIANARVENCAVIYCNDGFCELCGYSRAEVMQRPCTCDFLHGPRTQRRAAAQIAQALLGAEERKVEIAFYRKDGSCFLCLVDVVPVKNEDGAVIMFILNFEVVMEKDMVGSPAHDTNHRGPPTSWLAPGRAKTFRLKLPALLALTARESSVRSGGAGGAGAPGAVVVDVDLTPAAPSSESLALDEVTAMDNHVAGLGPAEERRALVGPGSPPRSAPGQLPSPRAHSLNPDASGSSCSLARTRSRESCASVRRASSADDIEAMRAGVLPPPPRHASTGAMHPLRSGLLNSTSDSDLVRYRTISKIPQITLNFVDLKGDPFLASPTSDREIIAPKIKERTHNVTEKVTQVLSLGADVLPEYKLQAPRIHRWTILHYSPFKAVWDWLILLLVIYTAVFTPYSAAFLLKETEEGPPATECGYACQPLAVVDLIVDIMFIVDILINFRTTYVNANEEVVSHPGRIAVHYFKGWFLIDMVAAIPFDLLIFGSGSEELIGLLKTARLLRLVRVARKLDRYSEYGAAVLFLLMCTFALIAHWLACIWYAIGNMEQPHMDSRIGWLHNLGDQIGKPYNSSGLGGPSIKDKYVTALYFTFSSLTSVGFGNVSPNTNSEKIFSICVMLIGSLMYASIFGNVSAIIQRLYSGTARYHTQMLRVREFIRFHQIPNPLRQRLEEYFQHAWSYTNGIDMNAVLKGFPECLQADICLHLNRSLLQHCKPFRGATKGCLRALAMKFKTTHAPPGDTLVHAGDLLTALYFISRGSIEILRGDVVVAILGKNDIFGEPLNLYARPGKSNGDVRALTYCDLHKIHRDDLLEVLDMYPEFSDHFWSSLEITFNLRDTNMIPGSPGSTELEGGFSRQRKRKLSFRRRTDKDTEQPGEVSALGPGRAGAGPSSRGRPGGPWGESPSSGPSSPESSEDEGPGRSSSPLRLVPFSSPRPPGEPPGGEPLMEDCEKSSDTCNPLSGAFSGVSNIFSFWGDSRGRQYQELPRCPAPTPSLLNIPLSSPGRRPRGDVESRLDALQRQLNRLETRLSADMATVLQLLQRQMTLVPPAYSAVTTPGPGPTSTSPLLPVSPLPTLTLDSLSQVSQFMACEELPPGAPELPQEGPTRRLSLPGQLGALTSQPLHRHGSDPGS
T3 sequence (P11940 whole entry): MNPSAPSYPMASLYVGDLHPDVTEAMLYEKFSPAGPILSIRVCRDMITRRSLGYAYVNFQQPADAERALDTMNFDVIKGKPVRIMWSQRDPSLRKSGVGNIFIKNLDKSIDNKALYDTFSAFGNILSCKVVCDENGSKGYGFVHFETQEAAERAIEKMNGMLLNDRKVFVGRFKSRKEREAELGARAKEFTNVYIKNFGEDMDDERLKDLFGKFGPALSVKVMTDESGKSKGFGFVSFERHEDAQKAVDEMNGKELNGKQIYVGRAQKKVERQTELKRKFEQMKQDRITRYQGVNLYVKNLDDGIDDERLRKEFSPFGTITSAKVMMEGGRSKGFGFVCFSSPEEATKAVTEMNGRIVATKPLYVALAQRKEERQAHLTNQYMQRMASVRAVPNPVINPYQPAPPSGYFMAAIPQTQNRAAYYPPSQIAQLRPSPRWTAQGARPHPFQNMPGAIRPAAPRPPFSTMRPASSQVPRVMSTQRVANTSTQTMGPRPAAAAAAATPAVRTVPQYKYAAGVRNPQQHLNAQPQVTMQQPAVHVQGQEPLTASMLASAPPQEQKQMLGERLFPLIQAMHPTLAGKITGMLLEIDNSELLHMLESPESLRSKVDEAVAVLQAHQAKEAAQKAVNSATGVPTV
Cytochrome P450 3A4, sequence (P08684 whole entry): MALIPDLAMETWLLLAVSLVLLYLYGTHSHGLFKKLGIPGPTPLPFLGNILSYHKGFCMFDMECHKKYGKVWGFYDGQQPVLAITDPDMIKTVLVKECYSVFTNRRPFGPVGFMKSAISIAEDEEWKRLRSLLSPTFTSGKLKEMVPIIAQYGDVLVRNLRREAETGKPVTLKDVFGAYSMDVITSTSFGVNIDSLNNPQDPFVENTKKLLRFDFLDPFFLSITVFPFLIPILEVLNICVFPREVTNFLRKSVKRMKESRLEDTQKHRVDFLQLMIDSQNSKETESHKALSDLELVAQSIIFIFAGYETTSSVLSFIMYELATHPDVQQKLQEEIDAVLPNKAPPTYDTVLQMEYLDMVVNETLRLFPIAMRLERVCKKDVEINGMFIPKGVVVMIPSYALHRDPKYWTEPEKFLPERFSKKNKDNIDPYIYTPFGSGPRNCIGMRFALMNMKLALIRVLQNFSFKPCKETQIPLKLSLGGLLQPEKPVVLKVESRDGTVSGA
Cytochrome P450 2C19, sequence (P33261 whole entry): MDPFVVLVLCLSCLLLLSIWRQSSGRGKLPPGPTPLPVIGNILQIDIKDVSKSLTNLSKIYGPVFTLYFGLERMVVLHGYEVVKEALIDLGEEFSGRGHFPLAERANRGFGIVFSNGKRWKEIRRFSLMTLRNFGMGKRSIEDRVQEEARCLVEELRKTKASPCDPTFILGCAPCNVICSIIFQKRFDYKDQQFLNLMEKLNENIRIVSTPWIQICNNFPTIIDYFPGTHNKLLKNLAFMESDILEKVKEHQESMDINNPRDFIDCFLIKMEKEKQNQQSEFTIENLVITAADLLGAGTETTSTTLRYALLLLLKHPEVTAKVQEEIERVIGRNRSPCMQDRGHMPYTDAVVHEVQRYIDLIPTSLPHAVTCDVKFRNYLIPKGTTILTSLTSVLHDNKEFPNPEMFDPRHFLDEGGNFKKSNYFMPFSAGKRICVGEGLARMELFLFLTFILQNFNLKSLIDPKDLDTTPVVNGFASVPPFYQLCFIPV
Cytochrome P450 2D6, sequence (P10635 whole entry): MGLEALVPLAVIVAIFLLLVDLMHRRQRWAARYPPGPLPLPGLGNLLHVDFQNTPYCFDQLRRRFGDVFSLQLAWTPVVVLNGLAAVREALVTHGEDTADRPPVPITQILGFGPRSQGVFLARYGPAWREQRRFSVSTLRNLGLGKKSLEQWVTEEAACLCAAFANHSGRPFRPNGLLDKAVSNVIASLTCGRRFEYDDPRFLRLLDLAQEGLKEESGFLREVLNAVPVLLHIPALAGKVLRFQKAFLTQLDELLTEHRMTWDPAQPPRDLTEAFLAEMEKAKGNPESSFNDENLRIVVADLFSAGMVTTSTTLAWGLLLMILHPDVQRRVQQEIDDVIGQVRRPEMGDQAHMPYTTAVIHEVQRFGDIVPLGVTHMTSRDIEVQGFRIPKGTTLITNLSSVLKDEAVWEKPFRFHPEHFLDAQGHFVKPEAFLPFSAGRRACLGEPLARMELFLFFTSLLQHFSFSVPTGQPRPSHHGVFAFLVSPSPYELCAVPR
Beta-galactosidase, sequence (Q8VNN2 whole entry): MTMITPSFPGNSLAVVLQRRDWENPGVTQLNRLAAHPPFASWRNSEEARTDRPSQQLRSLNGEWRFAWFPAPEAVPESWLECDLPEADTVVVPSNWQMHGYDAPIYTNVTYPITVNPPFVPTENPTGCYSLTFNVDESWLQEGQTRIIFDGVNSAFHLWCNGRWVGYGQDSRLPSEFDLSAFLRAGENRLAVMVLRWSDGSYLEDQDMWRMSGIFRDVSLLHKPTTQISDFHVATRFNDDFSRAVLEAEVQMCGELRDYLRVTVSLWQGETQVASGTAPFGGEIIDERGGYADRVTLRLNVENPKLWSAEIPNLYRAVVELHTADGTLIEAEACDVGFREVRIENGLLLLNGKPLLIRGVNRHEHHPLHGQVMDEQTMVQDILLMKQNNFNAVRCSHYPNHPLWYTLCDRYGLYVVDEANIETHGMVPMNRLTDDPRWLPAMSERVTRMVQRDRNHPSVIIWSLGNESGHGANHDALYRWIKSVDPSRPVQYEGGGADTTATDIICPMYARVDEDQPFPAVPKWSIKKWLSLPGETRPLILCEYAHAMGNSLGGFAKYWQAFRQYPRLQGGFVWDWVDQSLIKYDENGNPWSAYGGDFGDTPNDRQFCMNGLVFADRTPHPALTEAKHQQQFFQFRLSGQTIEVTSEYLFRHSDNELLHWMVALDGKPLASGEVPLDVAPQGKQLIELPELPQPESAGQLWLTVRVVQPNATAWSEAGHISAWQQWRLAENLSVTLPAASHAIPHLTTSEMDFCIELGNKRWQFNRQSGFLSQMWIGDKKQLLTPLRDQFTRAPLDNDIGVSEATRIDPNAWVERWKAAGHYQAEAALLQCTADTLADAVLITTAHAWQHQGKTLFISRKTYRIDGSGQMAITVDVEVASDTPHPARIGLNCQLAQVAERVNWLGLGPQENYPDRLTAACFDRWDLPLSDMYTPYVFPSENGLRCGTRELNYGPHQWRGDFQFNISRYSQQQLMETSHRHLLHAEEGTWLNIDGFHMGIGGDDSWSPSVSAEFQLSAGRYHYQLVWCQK

For orientation: AC50 means the concentration giving half of the maximal activity seen. By CC50 is commonly meant the concentration giving 50% cytotoxicity. As to `CCCCCCCCCCCCCCCC(=O)OC(CC(=O)O)C[N+](C)(C)C` (stereo not drawn), the values for the AC50 in series [1] and in [3] were 35.5 µM (inconclusive) and 1.39 µM (active), respectively. Besides, the cytotoxic concentration (CC50) in series [2] is 23.7 µM (active).
In the case of `Cc1ccc(NP(=O)(c2ccccc2)c2nc3ccccc3s2)cc1` (stereo not drawn), the IC50 on Phosphomannomutase 2 is > 100 µM (inactive); in series [4], > 50 µM (inactive).
What is called EC50 is the midpoint of the concentration-response curve. As for `COc1ccc(OC)c(/C=C/C(=O)N2C(=O)c3cccc(N)c3C2=O)c1`, the AC50 is 58.5 µM (active) in series [5], 26.6 µM (active) in series [6] and 3.25 µM (active) in series [9]. Further, the EC50 with HEK293 [7] and with HEK293 [11] was > 59.7 µM (inactive) in each case. Moreover, the IC50 in series [8] and in series [10] was > 66 µM (inactive) in each case.
For the compound `CC(C)NC(=O)C1CC(=O)N(c2ccc(F)c(Cl)c2)C1` (stereo not drawn), the AC50 was 14.1 µM (inconclusive) at Cytochrome P450 2D6, 2 µM (inconclusive) at Cytochrome P450 1A2 and “inconclusive” at Cytochrome P450 2C9.
Turning to `COc1ccc(NC(=O)c2ccc(C)cc2Cl)c([N+](=O)[O-])c1`, the concentration at half-maximal activity (AC50) at Cytochrome P450 2C19 is 3.55 µM (inconclusive); on Cytochrome P450 2C9 it was “inconclusive”.
Take `COc1cc(NC(=O)c2[nH]cnc2C(N)=O)cc(C(=O)Nc2cccc(C(F)(F)F)c2)c1`: the AC50 in [12] was 10.9 µM (active); in series [13], 6.34 µM (active); in the series on INS1, 3.48 µM (active); in the series with A-375, 17 µM (active).
Consider `O=C1Nc2ccc(Br)cc2/C1=C/C(=O)c1ccccc1`, for which the IC50 at Beta-galactosidase was > 66.6 µM (inactive). Also, the CC50 in the series on Vero is 19.1 µM (active). In addition, the EC50 in the series with HEK293 [7] and with HEK293 [11] was > 59.6 µM (inactive) throughout. In addition, in [3], the AC50 was 0.986 µM (active).
Turning to `[Cl-].[Li+]` [CHLOROLITHIUM], the AC50 in series [1] was 6.31 µM (inconclusive); at Cytochrome P450 3A4, 31.6 µM (inconclusive).

For the origin of these results see ChEMBL document CHEMBL1201862, “PubChem BioAssay data set” (2004).
